Assay results reported in US20260159520A1, “HETEROBIFUNCTIONAL COMPOUNDS AND METHODS OF TREATING DISEASE” (Halda Therapeutics OpCo, Inc., priority 2022, published 2026).

Columns and labels:
CDK9 = biological target: T1, CDK9 (Homo sapiens, UniProt P50750); assay: KdELECT binding assay, CDK9; conditions: CDK9, Table 7
T1 construct: made in house; host or cells: E. coli BL21-derived host (T7 phage) or HEK-293 ('BEK-293' [sic])
Procedure: Compounds were tested using a KdELECT. Kinase-tagged T7 phage strains were prepared in an E. coli host derived from the BL21 strain. E. coli were grown to log-phase and infected with T7 phage and incubated with shaking at 32° C. until lysis. The lysates were centrifuged and filtered to remove cell debris. The remaining kinases were produced in BEK-293 cells and subsequently tagged with DNA for qPCR detection. Streptavidin-coated magnetic beads were treated with biotinylated small molecule ligands for 30 minutes at room temperature to generate affinity resins for kinase assays. The liganded beads were blocked with excess biotin and washed with blocking buffer (SeaBlock (Pierce), 1% BSA, 0.05% Tween 20, 1 mM DTT) to remove unbound ligand and to reduce non-specific binding. Binding reactions were assembled by combining kinases, liganded affinity beads, and test compounds in 1× binding buffer (20% SeaBlock, 0.17×PBS, 0.05% Tween 20, 6 mM DTT). Test compounds were prepared as 111× stocks in 100% DMSO. Kd values were determined using an 11-point 3-fold compound dilution series with three DMSO control points. All compounds for Kd measurements are distributed by acoustic transfer (non-contact dispensing) in 100% DMSO. The compounds were then diluted directly into the assays such that the final concentration of DMSO was 0.9%. All reactions performed in polypropylene 384-well plate. Each was a final volume of 0.02 mL. The assay plates were incubated at room temperature with shaking for 1 hour and the affinity beads were washed with wash buffer (lx PBS, 0.05% Tween 20). The beads were then re-suspended in elution buffer (lx PBS, 0.05% Tween 20, 0.5 μM nonbiotinylated affinity ligand) and incubated at room temperature with shaking for 30 minutes. The kinase concentration in the eluates was measured by qPCR.

[1] = tested on: T-Rex 293 cell line SC3 cells having increased expression of androgen receptor protein; assay: Cellular growth inhibition, T-Rex 293 SC3 cells with doxycycline (increased androgen receptor expression); type: cell-based; conditions: with 10 ng/mL doxycycline (increased androgen receptor), 72 hours, CellTiter-Glo 2.0
Procedure: (§1) The following types of cells were prepared for this experiment: (i) a T-Rex 293 cell line having increased expression of androgen receptor protein due to exposure to doxycycline and (ii) a T-Rex 293 cell line lacking increased expression of androgen receptor protein. Ability of the test compounds to inhibit proliferation of the foregoing cell types was evaluated according to the procedures set forth below.
(§2) The doxycycline-inducible androgen receptor protein expressing cell line was established using the following protocol: T-Rex 293 cells were purchased from Invitrogen (Cat #R71007) and transfected using Lipofectamine 2000 with the wild-type androgen receptor protein sequence cloned into the pcDNA4/TO vector. Transfected cells were selected using 400 μg/mL Zeocin (Invitrogen Cat #R25001). Following selection, single clones were raised and maintained in Dulbecco's Modified Eagle Medium (DMEM) supplemented with 10% w/w Tetracycline-free fetal bovine serum (FBS) and 250 μg/mL Zeocin. Clones were analyzed for expression of androgen receptor protein in the presence and absence of 10 ng/mL doxycycline (Sigma Cat #D9891), and a single doxycycline-inducible clone (hereinafter “SC3”) was selected for use in downstream assays.
(§3) The SC3 cells were seeded on poly-D-lysine coated, black clear-bottom 384-well plates at 2500/well, in 25 μL Phenol Red Free Dulbecco's Modified Eagle Medium (DMEM) supplemented with 10% w/w charcoal-dextran treated fetal bovine serum (FBS) and 1% w/w pen-strep, with or without 10 ng/mL doxycycline. Pen-Strep is a commercially available mixture of penicillin G and streptomycin, which is used in mammalian cell culture media to prevent bacterial contamination. Phenol Red Free Dulbecco's Modified Eagle Medium (DMEM) supplemented with 10% w/w charcoal-dextran treated fetal bovine serum (FBS) and 1% w/w pen-strep, with or without 10 ng/mL doxycycline is herein referred to as Treatment Medium. Following seeding of cells in the plates, the plates were spun at 300×g for 30 seconds, then equilibrated to room temperature for 30 minutes, and then deposited in a humidified tissue culture incubator maintained at 37° C. with 5% CO2.
(§4) At 24 hours after seeding of the cells, dilutions of test compound were prepared in DMSO and dissolved in Treatment Medium, to achieve a final DMSO concentration of 0.5% w/w, thereby providing the Test Compound Solution. A 25 μL aliquot of the Test Compound Solution was added to cells in the well plates. An equal volume of a solution containing DMSO and Treatment Medium was used as a negative control. Following treatment of cells with Test Compound Solution or said equal volume of a solution containing DMSO and Treatment Medium, the plates were spun at 300×g for 30 seconds, and then left in an incubator for 72 hours.
(§5) At the end of the treatment duration, cell viability was quantified with CellTiter-Glo 2.0 reagent (Promega Cat #G9243). For this purpose, plates were equilibrated to room temperature for 30 minutes, and then 25 μL of CellTiter-Glo 2.0 reagent was added to cells in the plate wells. Plates were then agitated on a shaker for two minutes at 500 rpm and subsequently incubated at room temperature for 10 minutes. Following incubation, the plates were spun at 3000×g for 30 seconds, then sealed with an optical adhesive cover, and luminescence readings were measured with an EnVision Plate Reader.
(§6) Data was normalized using zero luminescence for baseline. A four-parameter non-linear regression curve fit was applied to dose-response data in GraphPad Prism data analysis software to determine the half-maximal growth inhibitory concentration (GI50) for each test compound.

[2] = tested on: T-Rex 293 cell line SC3 cells lacking increased expression of androgen receptor protein; assay: Cellular growth inhibition, T-Rex 293 SC3 cells without doxycycline; type: cell-based; conditions: not exposed to doxycycline, 72 hours, CellTiter-Glo 2.0
Procedure: as §1, §2, §3, §4, §5, §6

T47D cells = assay: Cellular growth inhibition assay for T47D cells; type: cell-based; conditions: Homo sapiens, 72 hours, CellTiter-Glo 2.0
Procedure: (§7) T47D cells were purchased from American Type Cell Culture (ATCC Cat #HTB-133) and then seeded on poly-D-lysine coated, black clear-bottom 384-well plates at 3000/well in 25 μL Dulbecco's Modified Eagle Medium (DMEM) supplemented with 10% w/w Fetal bovine serum (FBS), 0.2 units/mL recombinant human insulin (Gibco Cat #12585014), and 1% w/w Pen-Strep. Pen-Strep is a commercially available mixture of penicillin G and streptomycin, which is used in mammalian cell culture media to prevent bacterial contamination. Dulbecco's Modified Eagle Medium (DMEM) supplemented with 10% w/w fetal bovine serum (FBS), 0.2 units/mL recombinant human insulin, and 1% w/w Pen-Strep is herein referred to as Treatment Medium. Following seeding of cells in the plates, the plates were spun at 300×g for 30 seconds, then equilibrated to room temperature for 30 minutes, and then deposited in a humidified tissue culture incubator maintained at 37° C. with 5% CO2.
as §4
as §5, with “Reader (Perkin Elmer).” for “Reader.”
as §6

VCaP cells = assay: Cellular growth inhibition assay for VCaP cells; type: cell-based; conditions: Homo sapiens, 72 hours, CellTiter-Glo 2.0
Procedure: as §7, with “VCaP” for “T47D”, “#CRL2876)” for “#HTB-133)”, “5000/well” for “3000/well”, “(FBS)” for “(FBS), 0.2 units/mL recombinant human insulin (Gibco Cat #12585014),”, “(FBS)” for “(FBS), 0.2 units/mL recombinant human insulin,”
as §4
as §5, with “Reader. Data was normalized using zero luminescence for baseline.” for “Reader.”
A four-parameter non-linear regression curve fit was applied to dose-response data in GraphPad Prism data analysis software to determine the half-maximal growth inhibitory concentration (GI50) for each test compound.

T1 sequence (P50750 whole entry): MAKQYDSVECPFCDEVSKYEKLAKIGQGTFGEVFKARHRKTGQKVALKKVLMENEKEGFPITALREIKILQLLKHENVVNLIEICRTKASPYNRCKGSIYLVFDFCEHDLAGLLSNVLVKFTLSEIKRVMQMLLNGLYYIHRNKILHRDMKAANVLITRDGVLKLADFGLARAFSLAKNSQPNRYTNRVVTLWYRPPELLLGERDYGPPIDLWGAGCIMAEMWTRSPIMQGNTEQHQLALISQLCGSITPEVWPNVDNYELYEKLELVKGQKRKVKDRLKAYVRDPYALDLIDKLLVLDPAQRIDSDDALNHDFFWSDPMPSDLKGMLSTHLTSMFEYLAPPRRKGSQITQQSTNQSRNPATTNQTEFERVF

Row | Kd (CDK9) [nM] | GI50 (T47D cells) [nM] | GI50 (VCaP cells) [nM] | Structure (SMILES) | GI50 [1] [nM] | GI50 [2] [µM]
1 | – | < 500 | < 100 | CCc1cnn2c(NCc3ccc(N4CCN(C5CCN(C6CN(c7ncc(C(=O)N[C@H]8C(C)(C)[C@H](Oc9ccc(C#N)c(Cl)c9)C8(C)C)cn7)C6)CC5)CC4)nc3)cc(N3CCCC[C@H]3CCO)nc12 [Compound I-79] | < 100 | < 0.1
2 | – | 1500 to 3000 | > 3500 | COc1cc(F)ccc1-c1ccnc2[nH]c(C3CCN(CCOCCOCCOC4CCN(c5ncc(C(=O)N[C@H]6C(C)(C)[C@H](Oc7ccc(C#N)c(Cl)c7)C6(C)C)cn5)CC4)CC3)cc12 [Compound I-67, N-[3-(3-chloro-4-cyano-phenoxy)-2,2,4,4-tetramethyl-cyclobutyl]-2-[4-[2-[2-[2-[4-[4-(4-fluoro-2-methoxy-phenyl)-1H-pyrrolo[2,3-b]pyridin-2-yl]-1-piperidyl]ethoxy]ethoxy]ethoxy]-1-piperidyl]pyrimidine-5-carboxamide] | 100 to 1000 | 1 to 3.5
3 | – | < 500 | < 100 | CCc1cnn2c(NCc3ccc(N4CC(N5CCC(N6CCN(c7ncc(C(=O)N[C@H]8C(C)(C)[C@H](Oc9ccc(C#N)c(Cl)c9)C8(C)C)cn7)CC6)CC5)C4)nc3)cc(N3CCCC[C@H]3CCO)nc12 [Compound I-64] | < 100 | < 0.1
4 | – | 500 to 1500 | > 3500 | CCc1cnn2c(NCc3ccc(OCCN4CCN(CC5CCN(c6ncc(C(=O)N[C@H]7C(C)(C)[C@H](Oc8ccc(C#N)c(Cl)c8)C7(C)C)cn6)CC5)CC4)nc3)cc(N3CCCC(F)(F)C3)nc12 [Compound I-91] | 100 to 1000 | > 3.5
5 | – | 1500 to 3000 | 100 to 1000 | CCc1cnn2c(NCc3ccc(N4CC(N5CCC(C6CCN(c7ncc(C(=O)N[C@H]8C(C)(C)[C@H](Oc9ccc(C#N)c(Cl)c9)C8(C)C)cn7)CC6)CC5)C4)nc3)cc(N3CCCC[C@H]3CCO)nc12 [Compound I-66] | < 100 | > 3.5

Continued, molecule first:

Row | Structure (SMILES) | Kd (CDK9) [nM] | GI50 (T47D cells) [nM] | GI50 (VCaP cells) [nM] | GI50 [1] [nM] | GI50 [2] [µM]
6 | CC1(C)[C@H](NC(=O)c2cnc(N3CCC(OCCOCCOCCOCCOCCNS(=O)(=O)c4ccc(Nc5ncc(Br)c(Nc6cccc(F)c6C(N)=O)n5)cc4)CC3)nc2)C(C)(C)[C@H]1Oc1ccc(C#N)c(Cl)c1 [Compound I-15] | > 2500 | 500 to 1500 | – | > 3500 | > 3.5
7 | CCc1cnn2c(NCc3ccc(OCCOCCN4CC5CN(c6ncc(C(=O)N[C@H]7C(C)(C)[C@H](Oc8ccc(C#N)c(Cl)c8)C7(C)C)cn6)CC5C4)nc3)cc(N3CCCC[C@H]3CCO)nc12 (some centres unmarked) [Compound I-62] | 50 to 500 | – | 100 to 1000 | < 100 | 0.1 to 1
8 | CCc1cnn2c(NCc3ccc(OCCOC4CCN(C5CN(c6ncc(C(=O)N[C@H]7C(C)(C)[C@H](Oc8ccc(C#N)c(Cl)c8)C7(C)C)cn6)C5)CC4)nc3)cc(N3CCCC[C@H]3CCO)nc12 [Compound I-63] | < 50 | – | < 100 | < 100 | < 0.1
9 | CC1(C)[C@H](NC(=O)c2cnc(N3CCC(OCCCN4CCN(CCCNS(=O)(=O)c5ccc(Nc6ncc(Br)c(Nc7cccc(F)c7C(N)=O)n6)cc5)CC4)CC3)nc2)C(C)(C)[C@H]1Oc1ccc(C#N)c(Cl)c1 [Compound I-17] | > 2500 | 1500 to 3000 | – | > 3500 | > 3.5
10 | CCc1cnn2c(NCc3ccc(OCCCN4CCN(CC5CCN(c6ncc(C(=O)N[C@H]7C(C)(C)[C@H](Oc8ccc(C#N)c(Cl)c8)C7(C)C)cn6)CC5)CC4)nc3)cc(-c3ccccc3)nc12 [Compound I-49] | – | 1500 to 3000 | > 3500 | 100 to 1000 | > 3.5
11 | CCc1cnn2c(NCc3ccc(OCCN4CCN(CC5CCN(c6ncc(C(=O)N[C@H]7C(C)(C)[C@H](Oc8ccc(C#N)c(Cl)c8)C7(C)C)cn6)CC5)CC4)nc3)cc(N3CCCCC3)nc12 [Compound I-48] | – | 1500 to 3000 | > 3500 | 100 to 1000 | > 3.5
